The results in this text go back to patent publication US20240317722A1, “HETEROARYL-3-PIPERIDINEDIONE COMPOUND AND USE THEREOF” (Medshine Discovery Inc., priority 2021, published 2024).

One data set concerns NCI-H1581. As to the kind of experiment: Anti-proliferative effect in NCI-H1581 (CellTiter-Glo). It is filed as cell-based. To be noted: NCI-H1581, 3 days; for IC50: Homo sapiens, 72 h. The procedure: (§1) This assay studied the inhibitory effect of the compounds on cell proliferation by detecting the effect of the test compounds on the in vitro activity of tumor cells NCI-H1581, DMS114, NCI-H69 and NCI-H526.
(§2) The tumor cell lines were cultured in an incubator at 37° C., 5% CO2 or 0% CO2 according to the above culture conditions. The cells were periodically passaged, and cells in logarithmic growth phase were taken for plating. • 2. Cell plating • (1). Cells were stained with trypan blue and viable cells were counted.
(§3) • (3). 100 μL of cell suspension was added to each well of the culture plate, and culture medium without cells was added to the blank control well. • (4). The plate was incubated overnight in an incubator at 37° C., 5% CO2 or 0% CO2, and 100% relative humidity. • 3. Preparation of compound stock solution
(§4) Preparation of 1000× compound stock solution: Compound was dissolved in DMSO to 10 mM, then a portion was taken out and diluted to 1000 times the highest acting concentration. The diluted stock solution was dispensed for later use. • 4. Preparation of 5× compound working solution and treatment of cells with compounds. The working solutions were prepared freshly at each time for use. • (1). Preparation of 5× compound working solution: 119.4 μL of cell culture medium was added to a 96-well plate with a V-shaped bottom. 96 μL of DMSO-cell culture medium mix solution (with DMSO content of 0.5%) was added to subsequent gradient wells. 0.6 μL of the compound from the 1000× compound stock solution was added to the cell culture medium in the 96-well plate, and mixed to uniform with a pipette. A pipette was used to draw 24 μL of the compound-cell culture medium mixture into subsequent wells, and the mixture was mixed well by a pipette each time. • (2). Dosing: 25 μL of 5× compound working solution was added to the cell culture plate. 25 μL of DMSO-cell culture medium mix solution (with DMSO content of 0.5%) was added to the vehicle control and blank control. • (3). The 96-well cell plate was placed back into the incubator and cultured for 3 days. • 5. CellTiter-Glo luminescence cell viability detection
(§5) The following steps were performed according to the instruction of Promega CellTiter-Glo luminescence cell viability detection kit (Promega-G7573). • (1). The CellTiter-Glo buffer was thawed and allowed to stand to reach room temperature; • (2). CellTiter-Glo substrate was allowed to stand to reach room temperature; • (3). 10 mL of CellTiter-Glo buffer was added to CellTiter-Glo substrate in a bottle to dissolve the substrate to formulate CellTiter-Glo working solution; • (4). […] The culture plates were left at room temperature for 10 minutes to stabilize the luminescence signal; • (9). The luminous signal was detected on the 2104 En Vision plate reader. • 6. […]

For a further data set, the system named is NCI-H69. Kind of data set: Anti-proliferative effect in NCI-H69 (CellTiter-Glo). The data set is classed as cell-based. To be noted: NCI-H69, 3 days; for IC50: Homo sapiens, 72 h. The procedure: as §1, §2, §3, §4, §5
In general terms: Cellular ATP, detected with luciferase, serves as a proxy for viable cell number.

A short description of data set [1]: Pharmacokinetics of compounds in mice. The data set is classed as in vivo, C57BL/6N mice. To be noted: for bioavailability / clearance / Vd / half-life: male, C57BL/6N, mouse, plasma; for bioavailability: read-out: Bioavailability F; for Vd: read-out: Apparent volume of distribution; for half-life: read-out: Elimination half-life (converted). The source says:
In this study, C57BL/6N male mice were selected as the test animals, and the LC/MS/MS method was used to quantitatively determine the drug concentration in the plasma of mice intravenously or orally administered the test compounds, so as to evaluate the pharmacokinetic profile of the test compounds in mice.
C57BL/6N mice (male, 20-30 g, 7-10 weeks old, Beijing Vital River).
A clear solution or suspension of the test compound was intravenously injected into C57BL/6N mice (fasted overnight) via tail or given to C57BL/6N mice (fasted overnight) by gavage. For intravenous injection administration, blood was collected from the cheek at 0 h (before administration) and 0.083, 0.25, 0.5, 1, 2, 4, 6, 8, and 24 h after administration. Each sample was collected about 0.05 mL. Heparin sodium was added to anti-coagulate. Plasma samples were collected and placed on wet ice, and centrifuged within 1 hour to separate the plasma (centrifugation conditions: 6000 g, 3 minutes, 2-8° C.). Blood samples were stored in a −80° C. refrigerator before analysis; For oral gavage administration, blood was collected from the cheek at 0 h (before administration) and 0.083, 0.25, 0.5, 1, 2, 4, 6, 8, 24 h after administration. Each sample was collected about 0.05 mL. Heparin sodium was added to anti-coagulate. Plasma samples were collected and placed on wet ice, and centrifuged within 1 hour to separate the plasma (centrifugation conditions: 6000 g, 3 minutes, 2-8° C.). Blood samples were stored in a −80° C. refrigerator before analysis. Through blood drug concentration data at different time points, Phoenix WinNonlin8.2.0 was used to calculate pharmacokinetic parameters, providing parameters such as AUC0-t, AUC0-∞, MRT0-∞, Cmax, Tmax, and T1/2, etc. and their mean and standard deviation.

Setting [2] is: administration by gavage, 10 mg/kg.

Like-named read-outs stand apart in the source and are kept apart here.

Usually IC50 stands for the concentration needed to halve the response being measured. A low value points to greater potency in that assay. As usually defined, the bioavailability is the share of a dose that reaches the circulation, judged against a reference dose that is usually intravenous. As a reminder, the clearance is a measure of how efficiently the substance is removed, as volume per time. Low readings indicate a low capacity for elimination, high ones a high capacity for elimination. Usually half-life stands for the time in which the quantity being followed falls by half. As for `COCCOc1cc(NC(=O)NCc2ccc3c(C4CCC(=O)NC4=O)noc3c2)cc(Cl)c1C` (stereo not drawn) [WX013], in the data set on NCI-H1581, it took 1.3 nM to reach half-maximal inhibition (IC50) and the “Max. IR” value is listed as 88.62%. Also, in the data set with NCI-H69, half-maximal inhibition (IC50) required 1.3 nM and the “Max. IR” value turned out to be 70.53%. For the same compound, in data set [1] (setting [2]), the “Area under the plasma concentration-time curve (0-inf)” value (from here on “Area”) worked out at 40.90 µM·h, the Peak concentration came out at 3.06 µM and the Time to peak came out at 2.67 h. Also, in data set [1] (intravenous injection, 2 mg/kg), the “Area” value was determined as 37.03 µM·h, the clearance worked out at 1.84 mL/min/kg, the Vd stood at 0.44 L/kg and the half-life was 5.11 h. The bioavailability in data set [1] (PO 10 mg/kg vs IV 2 mg/kg) stood at 22.1%.
Take `COCCOc1cc(NC(=O)NCc2ccc3c(C4CCC(=O)NC4=O)coc3c2)cc(Cl)c1C` (stereo not drawn) [WX005]: in the data set on NCI-H1581, the IC50 was 5.2 nM and the “Max. IR” value is 92.19%. Also, in the data set with NCI-H69, half-maximal inhibition (IC50) required 6.2 nM and the “Max. IR” value is given as 68.41%. Moreover, in data set [1] (setting [2]), the “Area” value came out at 108.89 µM·h, the Peak concentration worked out at 23.27 µM and the Time to peak stood at 1.00 h. For the same compound, in data set [1] (intravenous injection, 1 mg/kg), the “Area” value was 14.34 µM·h, the clearance was found to be 2.3 mL/min/kg, the Vd was determined as 0.35 L/kg and the half-life is 2.71 h. The bioavailability in data set [1] (PO 10 mg/kg vs IV 1 mg/kg) turned out to be 75.9%.
